Test results from the C3SDB collision cross section collection.
Values joined by “and” are separate entries in the source; they are usually repeats but may differ in a detail not shown here. Equal values may be shown once. Values belong to the compound of their own block, whether it stands above or below them.

Columns and labels:
[1] = instrument: DT, single field, calibrated with Agilent tune mix (Agilent)
[2] = instrument: DT, stepped-field
[3] = instrument: TW, calibrated with phosphatidylcholines (ESI+) and phosphatidylethanolamines (ESI-)
[4] = instrument: DT, single field
[5] = [M+Na]+; instrument: DT; stepped-field

SMILES: CCCCCCCCCC/C=C\CCCCCCCCCC(=O)O[C@H](COC(=O)CCCCCCCCCCC)COP(=O)(O)OCCN [PE(34:1)]
collision cross section (N2) ([1]; [M+H]+): 274.7 Å² | collision cross section (N2) ([1]; [M+Na]+): 281.2 Å² | collision cross section (N2) ([1]; [M-H]-): 263.5 Å² | collision cross section (N2) ([2]; [M+Na]+): 281.3 Å² | collision cross section (N2) ([3]; [M+H]+): 272.8 Å² | collision cross section (N2) ([3]; [M-H]-): 262.8 Å²

SMILES: CC/C=C\C/C=C\C/C=C\C/C=C\C/C=C\CCCC(=O)OC[C@H](COP(=O)(O)OCCN)OC(=O)CCC/C=C\C/C=C\C/C=C\C/C=C\CCCCC [PE(40:9)]
collision cross section (N2) ([1]; [M+Na]+): 283.1 Å² | collision cross section (N2) ([2]; [M+Na]+): 286.6 Å²

SMILES: CC/C=C\C/C=C\C/C=C\CCCCCCCC(=O)O[C@H](COC(=O)CCCCCCC/C=C\C/C=C\CCCCC)COC(=O)CCCCCCCC/C=C\C/C=C\C/C=C\CCCCC [TG(58:8)]
collision cross section (N2) ([4]; [M+NH4]+): 330.76 Å² and 329.67 Å²

SMILES: CCCCC/C=C\C/C=C\C/C=C\CCCCC(=O)OC[C@H](COP(=O)(O)OCCN)OC(=O)CCCCCCCCCCC/C=C\C/C=C\CCCCC [PE(40:5)]
collision cross section (N2) ([1]; [M+H]+): 287.1 Å² | collision cross section (N2) ([1]; [M-H]-): 277.5 Å² | collision cross section (N2) ([2]; [M+Na]+): 294.8 Å² | collision cross section (N2) ([3]; [M+H]+): 284.8 Å² | collision cross section (N2) ([3]; [M-H]-): 276.2 Å²

SMILES: CC/C=C\C/C=C\C/C=C\C/C=C\C/C=C\CCCCCC(=O)OC[C@@H](COC(=O)CCCCCCCCCCCCCCCCC)OC(=O)CCCCCCC/C=C\C/C=C\CCCCC [TG(58:7)]
collision cross section (N2) ([4]; [M+NH4]+): 331.34 Å² and 332.87 Å² | collision cross section (N2) ([4]; [M+Na]+): 331.1 Å²

SMILES: CCCCCCCCCCCCCCCCCCC(=O)O[C@H](COC(=O)CCCCCCCCCCC)COP(=O)([O-])OCC[N+](C)(C)C [PC(31:0)]
collision cross section (N2) ([4]; [M+H]+): 278.69 Å²

SMILES: CCCC/C=C\CCCCCCCC(=O)OC[C@H](COP(=O)([O-])OCC[N+](C)(C)C)OC(=O)CCCCCCCCCCCCCCCCCC [PC(33:1)]
collision cross section (N2) ([4]; [M+H]+): 281.49 Å² | collision cross section (N2) ([4]; [M+Na]+): 283.22 Å²

SMILES: CCCC/C=C\CCCCCCCC(=O)O[C@@H](COC(=O)CCCCCCC/C=C\CCCCC)COC(=O)CCCCCCCCCCCC [TG(42:2)]
collision cross section (N2) ([4]; [M+NH4]+): 286.83 Å² and 289.71 Å² | collision cross section (N2) ([4]; [M+Na]+): 285.72 Å² and 288.76 Å²

SMILES: CCC/C=C\C/C=C\CCCCCCCCCC(=O)O[C@H](COC(=O)CCCCCCCCCCCCC)COP(=O)([O-])OCC[N+](C)(C)C [PC(32:2)]
collision cross section (N2) ([1]; [M+H]+): 276.8 Å² | collision cross section (N2) ([2]; [M+K]+): 289.2 Å² | collision cross section (N2) ([3]; [M+H]+): 274 Å²

SMILES: CCCCCCCCCCCCC=CC[C@@H](O)[C@H](COP(=O)([O-])OCC[N+](C)(C)C)NC(=O)CCCCCCCCCCCCCCCCCCCCCCCCCC [SM(45:1)]
collision cross section (N2) ([4]; [M+H]+): 315.31 Å²

SMILES: CCCCC/C=C\C/C=C\CCCCCCCC(=O)O[C@@H](CO)COC(=O)CCCCCCCCCCCCC [DG(32:2)]
collision cross section (N2) ([4]; [M+NH4]+): 253.01 Å²

SMILES: CC/C=C\C/C=C\C/C=C\C/C=C\C/C=C\C/C=C\CCC(=O)OC[C@H](COP(=O)(O)OC[C@H](N)C(=O)O)OC(=O)CCCCC/C=C\C/C=C\C/C=C\C/C=C\CCCCC [PS(44:10)]
collision cross section (N2) [5]: 296.88 Å² | collision cross section (N2) ([2]; [M+Na]+): 303.5 Å²

SMILES: CCCCCCCCCCCCCCCCCCCC(=O)O[C@@H](CO)COC(=O)CCCCCCCCCCC [DG(32:0)]
collision cross section (N2) ([4]; [M+NH4]+): 255.58 Å²

SMILES: CCCCC/C=C\C/C=C\C/C=C\C/C=C\CCCC(=O)OC[C@@H](COC(=O)CCCCCCC/C=C\CCCCCC)OC(=O)CCCC/C=C\C/C=C\C/C=C\CCCCC [TG(54:8)]
collision cross section (N2) ([4]; [M+NH4]+): 316.06 Å²

SMILES: CCCCCCCCCCCCC=CC[C@@H](O)[C@H](COP(=O)([O-])OCC[N+](C)(C)C)NC(=O)CC=CCCCCCCCCCCCCCC [SM(36:2)]
collision cross section (N2) ([1]; [M+H]+): 286.1 Å² | collision cross section (N2) ([2]; [M+Na]+): 290.9 Å²

Further lines, results first:

collision cross section (N2) ([4]; [M+NH4]+): 319.62 Å²
SMILES: CCCCCCCCCCCCCCCCCCCCCCC=CCC(=O)OC[C@H](CO)OC(=O)CC=CCCCCCCCCCCCCCCCCCCCCCC [DG(52:2)]

collision cross section (N2) ([4]; [M+NH4]+): 331.32 Å²
SMILES: CCCCCCCCCCCCCCCCCCCC(=O)OC[C@@H](COC(=O)CCCCCCCCCCCC)OC(=O)CCCCCCCCCCCCCCCCCCC [TG(53:0)]

collision cross section (N2) ([4]; [M+Na]+): 324.71 Å² and 326.86 Å²
SMILES: CCCCCCCCC/C=C\CCCCCCCC(=O)OC[C@@H](COC(=O)CCCCCCCCCCCCCCC)OC(=O)CCCCCCC/C=C\CCCCCCCCC [TG(54:2)]

collision cross section (N2) ([4]; [M+NH4]+): 343.68 Å² and 345.92 Å²
SMILES: CCCC/C=C\C/C=C\CCCCCCCC(=O)OC[C@H](COC(=O)CCCCCCCCCCCCCCCCCCCCC)OC(=O)CCCCCCCCCCCCCCCCCCC [TG(59:2)]

collision cross section (N2) ([4]; [M+Na]+): 289.67 Å² and 290.31 Å²
SMILES: C(OC(=O)CCCCCCCCCCCCC)[C@]([H])(OC(CCCCCCCCCCCCC)=O)COC(CCCCCCCCCCCCC)=O [TG(42:0)]

collision cross section (N2) ([4]; [M+NH4]+): 310.54 Å² and 314.67 Å² and 312.34 Å²
SMILES: CCCCCCCCCCCCCCCCCC(=O)OC[C@@H](COC(=O)CCCCCCCCCCC)OC(=O)CCCCCCCCCCCCCCCCC [TG(48:0)]

collision cross section (N2) ([4]; [M+NH4]+): 324.83 Å² and 327.28 Å²
SMILES: CCCCCCCCCCCCCCCCCCC(=O)OC[C@@H](COC(=O)CCCCCCCCCCCC)OC(=O)CCCCCCCCCCCCCCCCCC [TG(51:0)]

collision cross section (N2) ([4]; [M+NH4]+): 338.57 Å²
SMILES: CCCCCCCCCCCCCCCCCCCCC(=O)OC[C@@H](COC(=O)CCCCCCCCCCCC)OC(=O)CCCCCCCCCCCCCCCCCCCC [TG(55:0)]

collision cross section (N2) ([4]; [M+NH4]+): 334.96 Å²
SMILES: CCCCC/C=C\C/C=C\CCCCCCCCCC(=O)OC[C@@H](COC(=O)CCCCCCC/C=C\C/C=C\CCCCC)OC(=O)CCCCCCC/C=C\CCCCCCCCC [TG(57:5)]
